# Experimental data as given in patent US9670242B2, “Tetracyclic anthraquinone derivatives” (Tianjin Hemay Bio-Tech Co., Ltd, priority 2012, dated 2017).
# Assays:
# Assay type in all cases: cell-based, human
# A431 cells = assay: A431 cell growth inhibition test (MTT assay); details: 72 h
# Method: A431 Cell Growth Inhibition Test (MTT Assay)
# (§1) II. Reagents and Consumable Materials
# Culture medium: 45% DMEM+45% F12+10% FBS (fetal calf serum); Pancreatin (0.25% (w/v) solution was formulated with PBS, 0.53 mM of EDTA was added in the formulation); PBS; 96-well culture plate.
# (§2) 1. A plate (10 cm) of cells in logarithmic growth phase that were normally cultured was collected;
# (§3) 2. The culture solution was sucked out. The plate was washed with 5 mL of PBS once or twice;
# (§4) 3. PBS was sucked out. 1.5 mL of 0.25% pancreatin was added to the plate to infiltrate the cells for 1 min;
# (§5) 4. The culture plate was placed in an incubator. Digestion was carried out for about 5 min at 37° C.;
# (§6) 5. 3 mL of complete culture solution was added to the culture plate to stop the digestion. The cells were carefully scoured with micropipette (1 mL) to give a uniform cell suspension. The suspension was implanted into a 96-well cell culture disc by 2500 cells/100 μL per well. The culture plate was incubated overnight under 5% CO2 at 37° C. In day 2, 100 μL of culture solution comprising a compound was added in each well. The plate was further incubated for 72 h under 5% CO2 at 37° C.;
# (§7) 6. The culture solution was sucked out;
# (§8) 7. 100 μL of serum-free culture solution containing 0.5 mg/mL MTT was added in each well. The plate was incubated for 3 h;
# (§9) 8. The culture solution was carefully sucked out;
# (§10) 9. 100 μL of DMSO was added in each well and vibrated to dissolve;
# (§11) 10. OD values were determined at 490 nM.
# (§12) IV. Results and Treatments
# (§13) 1. Calculation of Relative Inhibition Ratio The inhibition ratio of a compound on cell growth=(PC−n)/(PC−NC)×100%
# (§14) PC: OD values of cells after normal growth in control wells without a compound;
# (§15) n: OD values of cells after growth in test wells with a compound;
# (§16) NC: Background OD values of blank wells without a compound and cells.
# A375 cells = assay: A375 cell growth inhibition test (MTT assay); details: 72 h
# Method: A375 Cell Growth Inhibition Test (MTT Assay)
# as §1
# Culture medium: 90% DMEM+10% FBS (fetal calf serum); Pancreatin (0.25% (w/v) solution was formulated with PBS, 0.53 mM of EDTA was added in the formulation); PBS; 96-well culture plate.
# as §2, §3, §4, §5
# as §6, with “ml)” for “mL)”, “3000” for “2500”
# as §7, §8, §9, §10, §11, §12, §13, §14, §15, §16
# NCI-H446 cells = assay: NCI-H446 cell growth inhibition test (MTT assay); details: growth inhibition at 222 nM, 70 h
# Summary of the method: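 Human small cell lung cancer cells in RPMI-1640 with 10% FBS were seeded at 4000 per well and treated with compound for 70 h at 37° C, 5% CO2. MTT at 0.5 mg/mL was added for 3 h, formazan was dissolved in DMSO and OD read at 490 nm. Inhibition ratio was calculated against untreated and blank wells.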
# MDA-MB-453 cells = assay: MDA-MB-453 cell growth inhibition test (SRB assay); details: growth inhibition at 2000 nM, 69.5 h
# Summary of the method: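 MDA-MB-453 cells (7000/well) in L15 with 10% FBS were seeded overnight, then exposed to compound for 69.5 h at 37 °C and 5% CO2. After TCA fixation and SRB staining, dye was solubilised in Tris and OD read at 570 nm. Inhibition = (PC−n)/(PC−NC)×100%.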
# 22Rv1 cells = assay: 22Rv1 cell growth inhibition test (SRB assay); details: growth inhibition at 222 nM, 73 h
# Summary of the method: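 Human prostate cancer 22Rv1 cells seeded at 7000 cells/well, incubated overnight, then exposed to compound for 73 h at 37° C, 5% CO2. TCA-fixed cells stained with SRB, dye dissolved in 10 mM Tris, OD read at 570 nm. Inhibition = (PC−n)/(PC−NC)×100% against untreated and cell-free blank wells.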
SMILES,IC50 (A431 cells),IC50 (A375 cells),Inhibition Ratio (%) (NCI-H446 cells),Inhibition Ratio (%) (MDA-MB-453 cells),Inhibition Ratio (%) (22Rv1 cells)
"COc1cccc2c1C(=O)c1c(O)c3c(c(O)c1C2=O)CC(O)(C(=O)COC(=O)CCC(=O)O)CC3OC1CC(n2cccc2)C(O)C(C)O1 (stereo not shown) [Compound A, 3′-pyrrolyldoxorubicin-14-oxo-succinic acid monoester, reference compound]",68 nM,207 nM,–,–,–
"CC(=O)O.COc1cccc2c1C(=O)c1c(O)c3c(c(O)c1C2=O)CC(O)(C(=O)COC(=O)CCC(=O)NCCCN1CCN(C)CC1)CC3O[C@H]1C[C@H](n2cccc2)[C@H](O)[C@H](C)O1 (stereo partly drawn) [Example 81, 10-((3′-(pyrrol-1-yll)-2′,3′,6′-trideoxy-alphal-l-lyxo-hexylpyranyl)oxy)-7,8,9,10-tetrahydro-6,8,11-trihydroxy-13-oxo-14-(4-((3-(4-methylpiperazin-1-yl)propyl)amino)-4-oxo-butyrato)-1-methoxy-5,12-naphthalenedione acetate]",42 nM,67 nM,56.8%,72%,56.5%
COc1cccc2c1C(=O)c1c(O)c3c(c(O)c1C2=O)CC(O)(C(=O)COC(=O)CCC(=O)NCCOCCO)CC3OC1CC(n2cccc2)C(O)C(C)O1 (stereo not shown) [Example 62],–,–,64.6%,83.7%,57%
